Assay results published in patent US7635561B2, “Methods of diagnosing, prognosing and treating breast cancer” (Temple University of the Commonwealth System of Higher …, priority 2003, dated 2009).

Columns and labels:
Format in all cases: cell-based
[1] = test system: pRb2/p130-multimolecular complex on ER-α promoter in MCF-7 cells; experiment: XChIP analysis of recruitment of pRb2/p130-multimolecular complex to the ER-α promoter in 5-Aza-2dC treated MCF-7 cells; settings: 72 hours treatment
Protocol: After removal of the medium, cells were washed three times on plates with cold phosphate-buffered saline (PBS) containing protease inhibitors (1 mM phenylmethyl-sulfonyl fluoride, 1 μg/ml aprotinin and 1 μg/ml pepstatin A), scraped, and washed again twice in cold PBS. The cell pellet was resuspended in SDS lysis buffer (1% SDS, 10 mM EDTA, 50 mM Tris-HCl, pH 8.1), incubated for 10 minutes on ice, sonicated to shear DNA to lengths between 300 and 500 bp, and centrifuged for 10 minutes at 13,000 rpm at 4° C. Sonicated cell supernatant was diluted in ChIP dilution buffer (0.01% SDS, 1.1% Triton X-100, 1.2 mM EDTA, 16.7 mM Tris-HCL, pH 8.1, 167 mM NaCL), and pre-cleared twice with salmon sperm DNA/protein A agarose at 4° C. for 2 hours. The agarose was pelleted and the supernatant fraction was collected and incubated overnight at 4° C. with the immunoprecipitating antibody.
As negative controls, a “no-antibody” immunoprecipitation was performed by incubating the supernatant fraction with salmon sperm DNA/protein A agarose, and immunoprecipitating the mixture with an irrelevant antibody. […]

[2] = test system: ER-α in MDA-MB-231 cells; experiment: Effect of 5-Aza-2dC on ER-α RNA (RT-PCR) and protein (Western blot) expression in MDA-MB-231 cells
Protocol: The expression of β-actin protein in each sample was assessed to normalize protein loading.
The breast carcinoma cell lines, MCF-7 (estrogen receptor-positive), MDA-MB-231 (estrogen receptor-negative) and the normal mammary epithelial cell line MCF-12A, were obtained from ATCC (Rockville, Md.) and were cultured according to the manufacturer's protocols. The breast primary tumors were selected on the basis of estrogen receptor status.
Control cells were left untreated. Total RNA was isolated from the treated and control cells, and ER-α RNA was detected by reverse-transcription polymerase chain reaction (RT-PCR). P-actin RNA expression was also determined by RT-PCR in total RNA isolated from treatment and control cells to normalize RNA loading. […] The expression of β-actin protein was assessed to normalize protein loading.

[3] = test system: pRb2/p130-multimolecular complex on ER-α promoter in MDA-MB-231 cells; experiment: XChIP analysis of recruitment of pRb2/p130-multimolecular complex to the ER-α promoter in 5-Aza-2dC treated MDA-MB-231 cells; settings: 72 hours treatment, complex contained pRb2/p130, E2F4, SUV39H1, p300, HDAC1
Protocol: Soluble chromatin was immunoprecipitated with specific antibodies recognizing pRb2/p130, E2F4, HDAC1, SUV39H1, DNMT1, and p300. The presence of ER-α promoter sequences in the immunoprecipitates was tested by PCR using specific primers spanning ER-α promoter.
Chromatin immunoprecipitations were performed using a modified procedure of previously published methods (see Orlando et al., 1997, Methods and 11, 205; Keller et al., 2002, J. Biol. Chem., 277, 31430, the entire disclosures of which are herein incorporated by reference), in combination with Western blot and PCR techniques. Approximately 1×10^6 MCF-7 and MDA-MB-231 cells were cross-linked by adding formaldehyde (1% final concentration) directly to the culture medium, and incubating the cells for 8 minutes at 37° C.
After removal of the medium, cells were washed three times on plates with cold phosphate-buffered saline (PBS) containing protease inhibitors (1 mM phenylmethyl-sulfonyl fluoride, 1 μg/ml aprotinin and 1 μg/ml pepstatin A), scraped, and washed again twice in cold PBS. […]
The recruitment of pRb2/p130-multimolecular complexes to ER-α promoter was analyzed in MCF-7 and MDA-MB-231 cells by XChIP. […]

## Nc1ncn([C@H]2C[C@H](O)[C@@H](CO)O2)c(=O)n1 [5-Aza-2dC, 5-Aza-2′-deoxycytidine]
[1]
  composition of pRb2/p130-multimolecular complex recruited onto ER-α promoter: did not influence the composition
[2]; MDA-MB-231 cells treated with 5-Aza-2dC
  time of maximal ER-α RNA expression: 72 h
[2]; MDA-MB-231 cells, 2.5 μM, 24-96 hours, RT-PCR, especially evident at 48-96 h
  expression of ER-α RNA: significantly enhanced
[2]; MDA-MB-231 cells, 2.5 μM, 24-96 hours, Western blot, especially evident at 48-96 h
  expression of ER-α protein: significantly enhanced
[3]
  composition of pRb2/p130-multimolecular complex recruited to ER-α promoter: did not contain DNMT1
